Assay results: patent US9187471B2, “Pyrido [4,3-b] indole and pyrido [3,4-b] indole derivatives and methods of use” (Medivation Technologies, Inc., priority 2010, dated 2015)

Legend:
[1] = molecular target: T1, rat adrenergic α1A receptor (Rattus norvegicus, UniProt P43140); assay: Adrenergic α1A radioligand binding ([3H]Prazosin); conditions: read-out: Adrenergic (0.1 μM) a1A, percent inhibition of specific binding; compound at 0.1 μM; 0.25 nM [3H]Prazosin
T1 construct: rat adrenergic α1A receptor obtained from Wistar Rat submaxillary glands; from tissue; host or cells: Wistar rat submaxillary glands
T1 sequence (P43140 1-466): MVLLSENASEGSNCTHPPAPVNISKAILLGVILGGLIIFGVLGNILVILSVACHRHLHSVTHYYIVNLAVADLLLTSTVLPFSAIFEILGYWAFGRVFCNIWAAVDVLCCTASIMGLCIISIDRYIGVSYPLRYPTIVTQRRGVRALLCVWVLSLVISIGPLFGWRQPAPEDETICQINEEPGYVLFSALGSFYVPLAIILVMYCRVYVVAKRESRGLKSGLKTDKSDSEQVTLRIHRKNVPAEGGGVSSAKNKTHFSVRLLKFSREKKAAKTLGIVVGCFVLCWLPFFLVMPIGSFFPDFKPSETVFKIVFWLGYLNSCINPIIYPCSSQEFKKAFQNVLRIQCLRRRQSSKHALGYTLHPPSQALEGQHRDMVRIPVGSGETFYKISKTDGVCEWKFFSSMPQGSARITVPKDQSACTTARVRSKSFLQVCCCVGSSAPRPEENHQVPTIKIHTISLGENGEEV
Summary of the method: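 Wistar rat submaxillary gland receptor in 50 mM Tris-HCl pH 7.4 with 0.5 mM EDTA, incubated with compound and 0.25 nM [3H]Prazosin for 60 min at 25 °C.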

[2] = molecular target: T2, human recombinant serotonin (5-Hydroxytryptamine) 5-HT6 receptor (Homo sapiens, UniProt P50406); assay: Serotonin 5-HT6 radioligand binding ([3H]LSD); conditions: compound at 0.1 μM; read-out: Inhibition of ligand binding, Serotonin 5-HT6 (percent inhibition of specific binding)
T2 construct: expressed in transfected cells; host or cells: HeLa
Source text: Receptor proteins were filtered and washed, the filters were then counted to determine [3H]LSD specifically bound.

[3] = molecular target: T3, human recombinant serotonin (5-Hydroxytryptamine) 5-HT2C receptor (Homo sapiens, UniProt P28335); assay: Serotonin 5-HT2C radioligand binding ([3H]Mesulergine); conditions: compound at 0.1 μM; read-out: Inhibition of ligand binding, Serotonin 5-HT2C (percent inhibition of specific binding)
T3 construct: expressed in transfected cells; host or cells: CHO-K1
T3 sequence (P28335 33-458): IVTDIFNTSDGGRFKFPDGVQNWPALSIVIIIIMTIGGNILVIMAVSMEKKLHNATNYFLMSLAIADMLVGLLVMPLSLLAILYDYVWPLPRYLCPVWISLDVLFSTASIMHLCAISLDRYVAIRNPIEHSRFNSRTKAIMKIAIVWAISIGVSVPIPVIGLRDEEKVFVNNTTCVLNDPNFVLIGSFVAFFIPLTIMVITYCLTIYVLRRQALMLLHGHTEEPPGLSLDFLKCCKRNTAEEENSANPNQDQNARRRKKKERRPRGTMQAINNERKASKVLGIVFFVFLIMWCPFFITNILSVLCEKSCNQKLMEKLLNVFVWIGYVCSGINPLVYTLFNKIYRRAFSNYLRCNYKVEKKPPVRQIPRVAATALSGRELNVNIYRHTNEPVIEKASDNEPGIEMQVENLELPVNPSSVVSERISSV
Method: Compounds of the invention were incubated with 1 nM [^3H]Mesulergine for 60 min at 25° C. Non-specific binding was estimated in the presence of 1 μM Mianserin. Receptor proteins were filtered and washed, the filters were then counted to determine [^3H]Mesulergine specifically bound.

[4] = molecular target: T4, human recombinant adrenergic α2C receptor (Homo sapiens, UniProt P18825); assay: Adrenergic α2C radioligand binding ([3H]MK-912); conditions: read-out: Adrenergic (0.1 μM) a2C, percent inhibition of specific binding; compound at 0.1 μM; 1 nM [3H]MK-912
T4 construct: expressed in transfected cells; host or cells: insect Sf9 cells
T4 sequence (P18825 1-462): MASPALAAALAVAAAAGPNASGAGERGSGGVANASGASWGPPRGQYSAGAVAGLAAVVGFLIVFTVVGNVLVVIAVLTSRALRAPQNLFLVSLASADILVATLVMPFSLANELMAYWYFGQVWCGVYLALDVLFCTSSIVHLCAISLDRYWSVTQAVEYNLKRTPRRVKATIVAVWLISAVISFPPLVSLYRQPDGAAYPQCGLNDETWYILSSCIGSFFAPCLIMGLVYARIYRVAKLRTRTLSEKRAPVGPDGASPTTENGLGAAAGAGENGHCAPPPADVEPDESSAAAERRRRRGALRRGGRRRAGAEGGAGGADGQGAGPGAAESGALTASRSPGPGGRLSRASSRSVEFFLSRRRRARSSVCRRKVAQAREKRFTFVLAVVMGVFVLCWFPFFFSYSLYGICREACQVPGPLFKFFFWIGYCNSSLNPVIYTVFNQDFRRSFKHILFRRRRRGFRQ
Summary of the method: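 Membranes from Sf9 cells expressing the human receptor, in 50 mM Tris-HCl pH 7.4 with 12.5 mM MgCl2 and 2 mM EDTA, incubated with compound and 1 nM [3H]MK-912 for 60 min at 25 °C. Non-specific binding defined with 10 μM WB-4101. Filter-bound radioactivity counted; percent inhibition of specific binding reported.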

[5] = molecular target: T5, human recombinant histamine H1 receptor (Homo sapiens, UniProt P35367); assay: Histamine H1 radioligand binding ([3H]Pyrilamine); conditions: read-out: Histamine H1 Binding (1 μM), percent inhibition of specific binding; compound at 1 μM; 1.2 nM [3H]Pyrilamine
T5 construct: expressed in transfected cells; host or cells: CHO-K1
Summary of the method: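 Human recombinant H1 receptor expressed in CHO-K1 cells, in 50 mM Tris-HCl pH 7.4 with 2 mM MgCl2, 100 mM NaCl, 250 mM sucrose. Non-specific binding defined with 1 μM pyrilamine; bound [3H]pyrilamine counted after filtration and washing. Values are percent inhibition of specific binding.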

T5 sequence (P35367 whole entry): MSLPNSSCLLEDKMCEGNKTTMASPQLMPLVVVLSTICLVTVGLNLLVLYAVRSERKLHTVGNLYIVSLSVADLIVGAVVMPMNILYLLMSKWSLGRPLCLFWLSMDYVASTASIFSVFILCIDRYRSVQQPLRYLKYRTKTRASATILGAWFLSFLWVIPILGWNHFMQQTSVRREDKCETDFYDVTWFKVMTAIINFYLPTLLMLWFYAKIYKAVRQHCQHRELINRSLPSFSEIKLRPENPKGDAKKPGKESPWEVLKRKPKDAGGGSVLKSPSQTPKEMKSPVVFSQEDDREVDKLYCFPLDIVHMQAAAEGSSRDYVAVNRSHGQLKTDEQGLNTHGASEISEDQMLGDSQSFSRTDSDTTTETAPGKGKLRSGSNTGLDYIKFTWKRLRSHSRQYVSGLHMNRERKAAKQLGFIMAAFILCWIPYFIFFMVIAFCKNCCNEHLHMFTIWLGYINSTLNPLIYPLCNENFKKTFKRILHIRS
T2 sequence (P50406 whole entry): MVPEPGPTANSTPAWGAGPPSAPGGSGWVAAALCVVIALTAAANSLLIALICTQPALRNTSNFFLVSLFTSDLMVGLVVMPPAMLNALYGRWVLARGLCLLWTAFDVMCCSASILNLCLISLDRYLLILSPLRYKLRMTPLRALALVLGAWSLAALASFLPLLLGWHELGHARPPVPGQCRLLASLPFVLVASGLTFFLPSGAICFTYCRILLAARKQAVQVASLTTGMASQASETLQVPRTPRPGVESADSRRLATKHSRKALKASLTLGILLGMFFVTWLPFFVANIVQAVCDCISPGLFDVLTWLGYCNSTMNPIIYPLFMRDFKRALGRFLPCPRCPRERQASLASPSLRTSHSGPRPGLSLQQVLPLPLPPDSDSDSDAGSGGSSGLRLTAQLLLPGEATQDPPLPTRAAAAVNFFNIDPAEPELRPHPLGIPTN

## Cc1ccc2c(c1)c1c(n2-c2ccc(-c3ccc(F)nc3)cn2)CCN(C)C1 [Compound No. 142, 5-(6′-fluoro-3,3′-bipyridin-6-yl)-2,8-dimethyl-2,3,4,5-tetrahydro-1H-pyrido[4,3-b]indole]
[1]
  inhibition at 0.1 µM: 46%
[2]
  inhibition at 0.1 µM: -12%
[3]
  inhibition at 0.1 µM: 98%
[4]
  inhibition at 0.1 µM: 5%
[5]
  inhibition at 1 µM: 7%

## Cc1ccc2c(c1)c1c(n2-c2ccccc2-c2cnc(N(C)C)nc2)CCN(C)C1 [Compound 31]
[1]
  inhibition at 0.1 µM: 51%
[2]
  inhibition at 0.1 µM: 20%
[3]
  inhibition at 0.1 µM: 15%
[4]
  inhibition at 0.1 µM: 12%
[5]
  inhibition at 1 µM: 3%

## Cc1ccc2c(c1)c1c(n2-c2cscc2-c2ccc(O)nc2)CCN(C)C1 [Compound 49]
[1]
  inhibition at 0.1 µM: 15%
[2]
  inhibition at 0.1 µM: 6%
[3]
  inhibition at 0.1 µM: 19%
[4]
  inhibition at 0.1 µM: -10%
[5]
  inhibition at 1 µM: 7%

## CNC(=O)c1ccc(-c2ccccc2-n2c3c(c4cc(C)ccc42)CN(C)CC3)cn1 [Compound No. 71, 5-(2-(2,8-dimethyl-3,4-dihydro-1H-pyrido[4,3-b]indol-5(2H)-yl)phenyl)-N-methylpicolinamide]
[1]
  inhibition at 0.1 µM: 65%
[2]
  inhibition at 0.1 µM: -7%
[3]
  inhibition at 0.1 µM: 15%
[4]
  inhibition at 0.1 µM: -1%
[5]
  inhibition at 1 µM: 18%

## Cc1ccc2c(c1)c1c(n2-c2cccc(-c3ccc4c(ccn4C)c3)c2)CCN(C)C1 [Compound 53, 2,8-dimethyl-5-(3-(1-methyl-1H-indol-5-yl)phenyl)-2,3,4,5-tetrahydro-1H-pyrido[4,3-b]indole]
[1]
  inhibition at 0.1 µM: -11%
[2]
  inhibition at 0.1 µM: 11%
[3]
  inhibition at 0.1 µM: 47%
[4]
  inhibition at 0.1 µM: 7%
[5]
  inhibition at 1 µM: 18%

## Cc1ccc2c(c1)c1c(n2-c2ccc(-c3ccc4c(ccn4C)c3)cn2)CCN(C)C1 [Compound No. 136, 2,8-dimethyl-5-(5-(1-methyl-1H-indol-5-yl)pyridin-2-yl)-2,3,4,5-tetrahydro-1H-pyrido[4,3-b]indole]
[1]
  inhibition at 0.1 µM: 20%
[2]
  inhibition at 0.1 µM: 10%
[3]
  inhibition at 0.1 µM: 101%
[4]
  inhibition at 0.1 µM: 24%
[5]
  inhibition at 1 µM: 5%

## Cc1ccc2c(c1)c1c(n2-c2cccc(-c3cccn3C)c2)CCN(C)C1 [Compound No. 69, 2,8-dimethyl-5-(3-(1-methyl-1H-pyrrol-2-yl)phenyl)-2,3,4,5-tetrahydro-1H-pyrido[4,3-b]indole]
[1]
  inhibition at 0.1 µM: 8%
[2]
  inhibition at 0.1 µM: 21%
[3]
  inhibition at 0.1 µM: 79%
[4]
  inhibition at 0.1 µM: -4%
[5]
  inhibition at 1 µM: 42%

## Cc1ccc2c(c1)c1c(n2-c2cccc(-c3ccc(F)nc3)c2)CCN(C)C1 [Compound 44, 5-(3-(6-fluoropyridin-3-yl)phenyl)-2,8-dimethyl-2,3,4,5-tetrahydro-1H-pyrido[4,3-b]indole]
[1]
  inhibition at 0.1 µM: 15%
[2]
  inhibition at 0.1 µM: 21%
[3]
  inhibition at 0.1 µM: 83%
[4]
  inhibition at 0.1 µM: 10%
[5]
  inhibition at 1 µM: 41%

## Cc1ccc2c(c1)c1c(n2-c2ccccc2-c2c(C)noc2C)CCN(C)C1 [Compound No. 82, 4-(2-(2,8-dimethyl-3,4-dihydro-1H-pyrido[4,3-b]indol-5(2H)-yl)phenyl)-3,5-dimethylisoxazole]
[1]
  inhibition at 0.1 µM: 3%
[2]
  inhibition at 0.1 µM: 14%
[3]
  inhibition at 0.1 µM: 68%
[4]
  inhibition at 0.1 µM: 7%
[5]
  inhibition at 1 µM: 18%

## CNC(=O)c1cc(-n2c3c(c4cc(C)ccc42)CN(C)CC3)cs1 [Compound No. 78]
[1]
  inhibition at 0.1 µM: 16%
[2]
  inhibition at 0.1 µM: 17%
[3]
  inhibition at 0.1 µM: 35%
[4]
  inhibition at 0.1 µM: 3%
[5]
  inhibition at 1 µM: 13%

## Cc1ccc2c(c1)c1c(n2-c2cccc(-c3c(C)noc3C)c2)CCN(C)C1 [Compound No. 65, 4-(3-(2,8-dimethyl-3,4-dihydro-1H-pyrido[4,3-b]indol-5(2H)-yl)phenyl)-3,5-dimethylisoxazole]
[1]
  inhibition at 0.1 µM: 1%
[2]
  inhibition at 0.1 µM: 38%
[3]
  inhibition at 0.1 µM: 57%
[4]
  inhibition at 0.1 µM: 8%
[5]
  inhibition at 1 µM: 31%

## COc1ccc(-c2cscc2-n2c3c(c4cc(C)ccc42)CN(C)CC3)cc1 [Compound 37]
[1]
  inhibition at 0.1 µM: 82%
[2]
  inhibition at 0.1 µM: 24%
[3]
  inhibition at 0.1 µM: 81%
[4]
  inhibition at 0.1 µM: 72%
[5]
  inhibition at 1 µM: 6%

## CC(=O)Nc1ccc(-c2cccc(-n3c4c(c5cc(C)ccc53)CN(C)CC4)c2)cn1 [Compound 45, N-(5-(3-(2,8-dimethyl-3,4-dihydro-1H-pyrido[4,3-b]indol-5(2H)-yl)phenyl)pyridin-2-yl)acetamide]
[1]
  inhibition at 0.1 µM: 13%
[2]
  inhibition at 0.1 µM: 6%
[3]
  inhibition at 0.1 µM: 26%
[4]
  inhibition at 0.1 µM: 7%
[5]
  inhibition at 1 µM: 8%

## CNC(=O)c1ccc(-c2ccccc2-n2c3c(c4cc(C)ccc42)CN(C)CC3)cc1 [Compound No. 72, 2′-(2,8-dimethyl-3,4-dihydro-1H-pyrido[4,3-b]indol-5(2H)-yl)-N-methylbiphenyl-4-carboxamide]
[1]
  inhibition at 0.1 µM: 36%
[2]
  inhibition at 0.1 µM: 3%
[3]
  inhibition at 0.1 µM: 16%
[4]
  inhibition at 0.1 µM: 1%
[5]
  inhibition at 1 µM: 18%

## Cc1ccc2c(c1)c1c(n2-c2ccc3ccncc3c2)CCN(C)C1 [Compound No. 74, 5-(isoquinolin-7-yl)-2,8-dimethyl-2,3,4,5-tetrahydro-1H-pyrido[4,3-b]indole]
[1]
  inhibition at 0.1 µM: 52%
[2]
  inhibition at 0.1 µM: 14%
[3]
  inhibition at 0.1 µM: 51%
[4]
  inhibition at 0.1 µM: 11%
[5]
  inhibition at 1 µM: 18%

## Cc1ccc2c(c1)c1c(n2-c2ccc3c(c2)CCN(C=O)C3)CCN(C)C1 [Compound No. 77, 6-(2,8-dimethyl-1,2,3,4-tetrahydro-pyrido[4,3-b]indol-5-yl)-3,4-dihydro-1H-isoquinoline-2-carbaldehyde]
[1]
  inhibition at 0.1 µM: 20%
[2]
  inhibition at 0.1 µM: 5%
[3]
  inhibition at 0.1 µM: 51%
[4]
  inhibition at 0.1 µM: 0%
[5]
  inhibition at 1 µM: 35%

## Cc1ccc2c(c1)c1c(n2-c2cccc(-c3ccc(C)s3)c2)CCN(C)C1 [Compound No. 64, 2,8-dimethyl-5-(3-(5-methylthiophen-2-yl)phenyl)-2,3,4,5-tetrahydro-1H-pyrido[4,3-b]indole]
[1]
  inhibition at 0.1 µM: -8%
[2]
  inhibition at 0.1 µM: -3%
[3]
  inhibition at 0.1 µM: 83%
[4]
  inhibition at 0.1 µM: 12%
[5]
  inhibition at 1 µM: 23%
